Data published in PMC4640066 (Nature Communications, 2015).

How the values were obtained:
α/β-tubulin = molecular target: T1, α/β-tubulin (Sus scrofa, UniProt P02550+P02554); assay: MT dynamics in vitro by TIRF microscopy of single MTs; type: biochemical, porcine; details: 30 μM, 5 μM tubulin, GMPCPP seeds
T1 construct: α/β-Tubulin was purified from porcine brain; from tissue; host or cells: porcine brain
Protocol: Purified α/β-tubulin was labelled with tetramethylrhodamine Succinimidyl Ester (C-1171, Life Technologies), Alexa Fluor 647 NHS Ester (A-20106, Life Technologies) or NHS-LC-biotin (21336, Life Technologies) as described. Briefly, α/β-tubulin was polymerized to form MTs. Then, the MTs were centrifuged, resuspended in labelling buffer containing NHS-conjugated dye or biotin. After the labelling reaction, two cycles of polymerization and depolymerization were performed to obtain active α/β-tubulin.
GMPCPP MT seeds were prepared by copolymerization of non-labelled tubulin, tetramethylrhodamine-labelled tubulin and biotin-labelled tubulin with 0.2 mM GMPCPP to yield the rhodamine and biotin labelling ratio 2% and 3%, respectively. GMPCPP was prepared enzymatically from GMPCP (M3170, Sigma-Aldrich) and nucleotide diphosphate kinase (N0379, Sigma-Aldrich)[35]. The glass chambers for observation were prepared as follows. […] The images of MTs were observed under total internal reflection fluorescence microscopy (IX81, Olympus) with a × 100 objective lens (UPlanSApo, numerical aperture (NA) 1.40, Olympus) and recorded at the frame rate of two frames per second using iXon3 EM CCD camera (Andor). […]

HeLa cells = assay: Anaphase spindle elongation, time-lapse anaphase duration; type: cell-based, human; details: 30 μM, after MG132 washout, 1 μM reversine, control 18.6 min
Protocol: HeLa cells expressing mCherry-H2B and EGFP-α-tubulin, HeLa ‘Kyoto' cell line stably expressing CEP55-LAPtag (a kind gift from Dr A.A. Hyman) and HeLa cells expressing RFP-H2B and GFP-LifeAct (a kind gift from Dr J. Ellenberg) were cultured in DMEM+GlutaMAX (Gibco) supplemented with 10% FBS, 100 U ml^−1 penicillin, 100 μg ml^−1 streptomycin and 1 mM sodium pyruvate in a humidified atmosphere containing 5% CO2. To observe the transition from metaphase to anaphase, telophase and cytokinesis, cells were arrested at metaphase by sequential treatment of STLC and MG132. After MG132 removal by washing of cells with medium three times, the medium was changed to Live Cell Imaging Solution (Molecular Probes Life Technologies) supplemented as described above containing 1 μM of MPS1 inhibitor reversine and either DMSO or 30 μM of gatastatin. Time-lapse observation was performed at 37 °C using the DeltaVision Olympus IX71 microscope (Applied Precision) equipped with CoolSNAP HQ camera (Photometrics). Images were taken every 3 min with 12 z-stacks (1 μm per stack) for 3 h. The anaphase duration (between chromosome separation and start of midbody formation) was calculated.

[1] = tested on: HeLa cells expressing EB3-EGFP (mitotic spindle); assay: EB3-EGFP signal tracking, mitotic (MG132 metaphase) cells; type: cell-based, human; details: 30 μM
Protocol: Figure 4 Impact of gatastatin on mitotic spindle dynamics. (a,b) γ-Tubulin function is important for normal bipolar spindle formation. (a) Scheme of the experiment in b. HeLa cells were arrested at prometaphase by treatment with 10 μM of STLC for 15 h before STLC was washed out. Progression through mitotic phases was then monitored either in the presence or absence of 30 μM of gatastatin for 2 h. (b) The mitotic stages of 20 cells per experiment from the scheme in a were analysed in three independent experiments. Error bars represent s.d. (c–e) γ-Tubulin function is important for normal bipolar spindle maintenance. (c) Scheme of the experiment in d,e. After STLC washout, HeLa cells were arrested at metaphase with bipolar spindles by treatment with 5 μM of MG132 for 2 h. 30 μM Gatastatin was added to cells and incubated for 2 h in the presence of MG132. (d) The spindle length (distance between centrosomes) of cells in scheme c was measured as described in Fig. 3g. Spindles of 20 cells per experiment were analysed. Three independent experiments were performed and one representative experiment is shown. Error bars represent s.d. Two-tailed, unpaired Student's t-test was used to obtain P value. (e) The effect of gatastatin on spindle MT dynamics was analysed using HeLa cells expressing EB3-EGFP. EB3 signals of spindle in c were monitored. […] Scale bar, 5 μm.
A HeLa ‘Kyoto' cell line stably expressing EB3-EGFP (a kind gift from Dr J. Ellenberg) was maintained in DMEM+GlutaMAX (Gibco) supplemented with 10% FBS, 2 mM L-glutamine, 100 U ml^−1 penicillin, 100 μg ml^−1 streptomycin, 1 mM sodium pyruvate and 0.5 mg ml^−1 G418. Cells were seeded into eight-well Lab-Tek chambers (Nunc, Rochester, NY) for 24-h prior imaging. For imaging, the medium was exchanged to Live Cell Imaging Solution (Molecular Probes Life Technologies) supplemented as described above and containing various concentrations of AG1 or gatastatin. Interphase cells were incubated with drugs for 15 min and mitotic cells were treated as described in Fig. 4c. Then, EB3 tracks were observed under a PerkinElmer UltraVIEW ERS Spinning Disk microscope (Software: UltraVIEW ERS Imaging Suite) equipped with a Plan-APOCHROMAT × 100/1.4 Oil DIC objective, a Confocal Scanner Unit (Yokogawa CSU 22), a Hamamatsu EM CCD camera (C9100-50) and a 488-nm Argon laser at 37 °C, and time-lapse sequences were performed for 60 s with a 400-ms interval. Automatic analysis of EB3-EGFP signal tracks was performed with ImageJ (http://imagej.nih.gov/ij/) and Matlab (Mathworks) as described.

[2] = 2 h with MG132, mitotic HeLa EB3-EGFP, mean±s.d.

T1 sequence (P02550 whole entry): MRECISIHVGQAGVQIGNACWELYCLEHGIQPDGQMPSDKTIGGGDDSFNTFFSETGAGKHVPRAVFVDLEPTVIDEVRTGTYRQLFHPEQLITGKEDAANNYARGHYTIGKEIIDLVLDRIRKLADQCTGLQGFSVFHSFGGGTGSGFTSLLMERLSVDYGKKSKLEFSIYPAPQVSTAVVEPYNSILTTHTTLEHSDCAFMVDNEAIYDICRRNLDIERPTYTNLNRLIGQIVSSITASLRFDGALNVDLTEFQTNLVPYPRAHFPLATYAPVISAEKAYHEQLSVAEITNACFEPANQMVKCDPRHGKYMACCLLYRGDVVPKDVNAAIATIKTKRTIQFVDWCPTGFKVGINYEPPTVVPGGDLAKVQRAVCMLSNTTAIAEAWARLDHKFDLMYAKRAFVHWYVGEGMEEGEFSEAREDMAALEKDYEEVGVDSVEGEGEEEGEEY
T1 sequence (P02554 whole entry): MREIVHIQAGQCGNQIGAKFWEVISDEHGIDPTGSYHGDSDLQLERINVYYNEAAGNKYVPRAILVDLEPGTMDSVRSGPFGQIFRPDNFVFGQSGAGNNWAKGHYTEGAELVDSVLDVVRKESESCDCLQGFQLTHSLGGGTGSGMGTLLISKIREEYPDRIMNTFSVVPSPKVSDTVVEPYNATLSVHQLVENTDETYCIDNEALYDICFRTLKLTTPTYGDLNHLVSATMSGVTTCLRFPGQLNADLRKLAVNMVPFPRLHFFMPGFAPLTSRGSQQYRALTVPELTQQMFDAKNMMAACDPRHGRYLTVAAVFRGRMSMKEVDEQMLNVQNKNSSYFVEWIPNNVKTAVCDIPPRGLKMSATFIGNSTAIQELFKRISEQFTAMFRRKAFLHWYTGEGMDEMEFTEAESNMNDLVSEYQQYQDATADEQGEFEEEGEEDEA

- Effect on MT growth velocity (TIRF analysis of single MTs) (α/β-tubulin): did not affect MT growth velocity
Structure (SMILES): COc1cc2c(=O)c(-c3cc(OC)c4c(c3OC)OCO4)coc2cc1OCc1ccccc1 [Gatastatin, O^7-demethylbenzyl AG1]
- Anaphase duration (HeLa cells): 32.4 min
- Track length [1, 2]: 0.53±0.09 μm
- Track lifetime [1, 2]: 1.76 ± 0.66 s
- Velocity [1, 2]: 11.21±1.68 μm min^−1
- Track numbers ([1]; 2 h with MG132, mitotic, from a 25-μm^2 area in the spindle): 37.27±8.12
- Reduction of the number of growing MTs ([1]; preformed metaphase spindle (MG132), compared with control): 17%
